The values that follow come from patent US5512471A, “Process for purifying an α-D-galactosidase isozyme from Coffea beans” (The Curators of the University of Missouri, priority 1992, dated 1996).

Each structure is given as a SMILES string. A value given as a limit tells only on which side of the number the result lay.

Assay [1] deals with α-D-galactosidase isozyme. The assay can be described thus: Substrate specificity with PNP and 4-MU conjugates. Type of assay: biochemical, Coffea canephora. The settings on record: pH 6.0. From the text: Analytical procedures: Protein concentration was quantitated by the method of Bradford using bovine serum albumin (BSA) as a standard (9). […] One unit of activity was defined as 1.0 μmole of substrate hydrolyzed per minute.

Assay [2] has as its system α-D-galactosidase isozyme. The assay can be described thus: Km determination by varying the substrate concentration. Particulars: 50 mM Na citrate + 1 mg/ml BSA, pH 6.0; mean, S.D.=0.09, N=3. Type of assay: biochemical, Coffea canephora. Here is the method:
The pH optimum was determined by incubating aliquots of the enzyme in 40 mM Na citrate +40 mN Na H2 PO4 +1 mg/ml BSA+2.5 mM PNP-α-D-galactopyranoside, pH =2.0 to 8.0. The ionic strength optimum was determined by incubating aliquots of the enzyme in 5.0 mM Na citrate +1 mg/ml BSA +2.5 mM PNP α-D-galactopyranoside +0 to 1.0M Na Cl, pH =6.0. The Km for PNP-α-D-galactopyranoside was determined by varying the substrate concentration in 50 mM Na citrate +1 mg/ml BSA, pH =6.0. The native molecular weight of the isozyme was determined by applying a concentrated portion of the enzyme to a 1.5×45 cm Sephacryl S-200 column equilibrated in 25 mM Na citrate +200 mM NaCl, pH=6.0.

Setting [3] is: 4-MU substrates, % of activity on 4-MU-α-D-galactopyranoside.
The mark [4] stands for this setting: PNP conjugates 2.5 mM, % of activity on PNP-α-D-galactopyranoside.

Regarding `CC(=O)NC1C(O)CC(Oc2ccc3c(C)cc(=O)oc3c2)(C(=O)O)OC1C(O)C(O)CO` (stereo not drawn) [4-MU-N-acetyl-α-neuraminic acid], in assay [1] (setting [3]), the “RELATIVE ACTIVITY” value is given as under 0.01%. Take `Cc1cc(=O)oc2cc(O[C@H]3O[C@H](CO)[C@H](O)[C@H](O)[C@H]3O)ccc12` [4-MU-α-D-galactopyranoside]: the “RELATIVE ACTIVITY” value in assay [1] (setting [3]) worked out at 100.00%. Regarding `CC(=O)N[C@H]1[C@@H](Oc2ccc([N+](=O)[O-])cc2)O[C@H](CO)[C@H](O)[C@@H]1O` [PNP-N-acetyl-α-D-galactosaminide], the “RELATIVE ACTIVITY” value in assay [1] (setting [4]) is recorded as under 0.06%.

In the case of `CC(=O)N[C@H]1[C@@H](Oc2ccc([N+](=O)[O-])cc2)O[C@H](CO)[C@@H](O)[C@@H]1O` [PNP-N-acetyl-α-D-glucosaminide], in assay [1] (setting [4]), the “RELATIVE ACTIVITY” value is under 0.06%.

Consider `CC(=O)N[C@H]1[C@H](Oc2ccc([N+](=O)[O-])cc2)O[C@H](CO)[C@H](O)[C@@H]1O` [PNP-N-acetyl-β-D-galactosaminide], for which the “RELATIVE ACTIVITY” value in assay [1] (setting [4]) is given as under 0.06%.

As to `CC(=O)N[C@H]1[C@H](Oc2ccc([N+](=O)[O-])cc2)O[C@H](CO)[C@@H](O)[C@@H]1O` [PNP-N-acetyl-β-D-glucosaminide], the “RELATIVE ACTIVITY” value in assay [1] (setting [4]) is under 0.06%. Broadly, the Km is the substrate concentration at which the rate is half of its maximum. `O=[N+]([O-])c1ccc(O[C@H]2O[C@H](CO)[C@H](O)[C@H](O)[C@H]2O)cc1` [PNP-α-D-galactopyranoside]: in assay [1] (setting [4]), the “RELATIVE ACTIVITY” value came out at 100.00%. The Km in assay [2] was 260 µM. Take `O=[N+]([O-])c1ccc(O[C@H]2O[C@H](CO)[C@@H](O)[C@H](O)[C@H]2O)cc1` [PNP-α-D-glucopyranoside]: the “RELATIVE ACTIVITY” value in assay [1] (setting [4]) is reported as under 0.06%. Turning to `O=[N+]([O-])c1ccc(O[C@@H]2OC[C@H](O)[C@H](O)[C@H]2O)cc1` [PNP-α-L-arabinopyranoside], in assay [1] (setting [4]), the “RELATIVE ACTIVITY” value is on record as under 0.06%. `C[C@@H]1O[C@@H](Oc2ccc([N+](=O)[O-])cc2)[C@@H](O)[C@H](O)[C@@H]1O` [PNP-α-L-fucopyranoside]: in assay [1] (setting [4]), the “RELATIVE ACTIVITY” value is recorded as under 0.06%.

Take `O=[N+]([O-])c1ccc(O[C@@H]2O[C@H](CO)[C@H](O)[C@H](O)[C@H]2O)cc1` [PNP-β-D-galactopyranoside]: the “RELATIVE ACTIVITY” value in assay [1] (setting [4]) is listed as under 0.06%. As to `O=[N+]([O-])c1ccc(O[C@@H]2O[C@H](CO)[C@@H](O)[C@H](O)[C@H]2O)cc1` [PNP-β-D-glucopyranoside], in assay [1] (setting [4]), the “RELATIVE ACTIVITY” value was under 0.06%.

`C[C@@H]1O[C@H](Oc2ccc([N+](=O)[O-])cc2)[C@@H](O)[C@H](O)[C@@H]1O` [PNP-β-L-fucopyranoside]: the “RELATIVE ACTIVITY” value in assay [1] (setting [4]) was under 0.06%.
